In patent publication US20150030667A1, “COMPOSITIONS AND METHODS FOR TREATING U[…]” (priority 2013, published 2015):

Tested on: bladder (detrusor) contractility of BoNT treated rats
Conditions: rat, in vivo

For CN(C)C(=O)Oc1cccc([N+](C)(C)C)c1 [neostigmine], the amplitude of contraction was “raised”, the baseline pressure was “without affecting baseline pressure” and the contractility was “improves contractility”. For the same compound, the duration of contraction was “significant increase”, the “duration of voiding contraction” value was “increase” and the “interval between bladder contractions” value was “decrease”.
